Reference: paper PMC10859961, “Ir(III) Half-Sandwich Photosensitizers with a π-Expansive Ligand for Efficient Anticancer Photodynamic Therapy” (Journal of Medicinal Chemistry, 2024)
Read-outs that look alike come from different tables or passages of the source.

How the values were obtained:
A549 cells [1] = test: Trypan blue exclusion test; type: cell-based, human; conditions: complexes at respective IC50 in the dark, 24 h
Procedure: To assess the cytotoxicity of the complexes, A549 cells were seeded in 96-well plates and treated with the complexes at the respective IC50,dark value. After 24 h of incubation, 10 μL of Trypan Blue (0.4% solution; Sigma) was added directly to the wells to avoid loss of dead cells in the treatment washes. After 10 min, images of the cells were captured using an Olympus CKX41 Microscope equipped with LCmicro software (Olympus).

A549 cells [2] = test: Lysosome damage (Acridine Orange, confocal microscopy); type: cell-based, human; conditions: 10 nM, blue light irradiation
Procedure: For confocal microscopy experiments, A549 cells were seeded onto glass-bottom 8-well chamber slides (Ibidi) (5 × 10^4 cells per well) and allowed to attach overnight. In each experiment, the cells were treated with the complexes at the indicated conditions and washed with PBS before staining. For mitochondria visualization, the cells were incubated with the fluorescent dye MitoTracker Red CMXRos (Molecular Probes) at 200 nM in serum-free culture medium for 30 min at 37 °C. Cell nuclei were counterstained in blue with Hoechst 33342 (Invitrogen) diluted 1:4000 in DMEM without phenol red. To analyze lysosomal damage, the cells were incubated with AO at 5 μM at 37 °C for 15 min. Before observation, the cells were washed twice with PBS and fresh growth medium without phenol red was added. Cell images were immediately obtained by a Nikon A1R confocal microscope and images were analyzed using the NIS-Elements AR (Nikon, Japan) and the Fiji/ImageJ software.

A549 = test: CyQUANT cell viability assay, dark or blue light; type: cell-based, human; conditions: for PI/Dose / IC50 / PI (IC50,dark/IC50,light): A549; for PI/Dose: 460 nm, dose 24.1 J cm‐2, PI from CyQUANT; for IC50: 48 h; for IC50 / PI (IC50,dark/IC50,light) / photoselectivity: IC50,light in A549 lower than IC50,dark in MRC-5 / phototoxicity indexes: CyQUANT; for PI (IC50,dark/IC50,light): blue light 460 nm; for photoselectivity: IC50,light in A549 lower than IC50,dark in MRC-5: A549 blue light vs nonirradiated MRC-5 lung fibroblasts; for phototoxicity indexes: three cancer cell lines (A549, HeLa, PC-3), blue light
Procedure: (§1) Cells were cultured in 96-well plates at a density of 3000 (A549), 2500 (HeLa), or 5000 (PC-3, 1BR.3.G, and MRC-5) cells per well in cell culture medium and allowed to attach for 24 h. Solutions of the complexes at different concentrations were prepared for cell treatments. In all cases, the solid compounds were weighed using an analytical balance (Mettler Toledo AX205DR) to ensure precise measurements. Subsequently, 5 mM solutions were prepared using DMSO. Solutions were then diluted in water to reach a concentration of 1 mM and then, aliquots were taken and diluted in culture medium to obtain solutions ranging from 0 to 50 μM. […] The cells were treated with these solutions in dark conditions or following the photoactivation protocol (see below). 48 h later the treatments were removed, and cells were washed with phosphate-buffered saline (PBS).
(§2) Initially, the effect of the complexes on the cell viability was determined by the 3-(4,5-dimethylthiazol-2-yl)-2,5-diphenyltetrazolium bromide (MTT) assay.[147] The cells were incubated for 2 h with 100 μL of culture medium together with 10 μL of MTT (Sigma-Aldrich) at 0.5 mg/mL. After discarding the medium, DMSO was added to each well to dissolve the purple formazan crystals. The absorbance of each well was determined on a Multiscan Plate Reader (Synergy 4, Biotek, Winooski) at a wavelength of 570 nm. Cell viability was also assessed using the CyQUANT Direct Cell Proliferation Assay (Thermo Fisher Scientific), following the manufacturer’s instructions. Briefly, after the treatments, the cells were washed with PBS, and an equal volume of culture medium and CyQUANT mix was added to each well. The plates were then incubated for 1 h at 37 °C. Subsequently, the fluorescence intensity was bottom read using a Multiscan Plate Reader (Synergy 4, Biotek, Winooski) with excitation and emission filters of 485 and 528 nm, respectively. In both assays, at least three replicates were measured for each treatment. The concentration that reduces the cell viability by 50% (IC50) was established using the Gen5 software (BioTek). Three independent experiments were carried out for each compound. […] The phototoxicity index (PI = IC50,dark/IC50,light) was determined.
(§3) To assess the photodynamic activity of the complexes, cells were incubated with the complexes for 4 h to enable their intracellular accumulation. The cells were then irradiated with light with a wavelength of 460 nm (blue), 530 nm (green), or 655 nm (red) for 1 h using a LED system (LuxLight) with an effective power of 6.7 mW cm^–2, which provides a total light dose of 24.1 J cm^–2. The LED system was positioned at 25 mm from the cell culture plates.

1BR.3.G = test: CyQUANT cell viability assay, dark or blue light; type: cell-based, human; conditions: for IC50: 48 h; for PI (IC50,dark/IC50,light): blue light 460 nm
Procedure: as §1, §2, §3

A549 cells [3] = test: Superoxide anion production (ROS-ID Superoxide Detection Kit); type: cell-based, human; conditions: 10 nM, photoactivated with blue light
Procedure: The types of ROS generated by the treatments were also investigated. Superoxide anion (O2^•–) production was monitored using the ROS-ID Superoxide Detection Kit (Enzo Life Sciences), which contains a cell-permeable probe that selectively emits orange fluorescence upon reacting with O2^•–. Following the treatments, cells were harvested and incubated with the probe for 30 min at 37 °C. Fluorescence emission from 1 × 10^4 cells was measured by flow cytometry (Ex/Em: 550/620 nm) and compared to that of control untreated cells. In addition, hydrogen peroxide (H2O2) generation was measured using the Hydrogen Peroxide Assay Kit (Cell-based) (Abcam). […] After 1 h of incubation at 37 °C, the median fluorescence of 1 × 10^4 cells was determined by flow cytometry (Ex/Em = 490/520 nm) and compared to that of control cells. All experiments were conducted in triplicate.

[4] = Lipophilicity by the shake flask method; type: physicochemical; conditions: 1-octanol/water; for logD9.2: carbonate–bicarbonate buffer pH 9.2
Procedure: The partition coefficients of complexes 5, 6, 7, and 8 were determined by the standard “shake flask” method.[37],[84],[85] Octanol-saturated water (OSW) and water-saturated octanol (WSO) were prepared using analytical grade 1-octanol and ultrapure water. The complexes were dissolved in WSO and molar extinction coefficient was determined. Then, 2 mL of 25 μg/mL complex in WSO was shaken with 2 mL of OSW at 1500 rpm for 6 h at room temperature. To separate the phases, centrifugation was done at 4000 rpm for 10 min. The absorbance of WSO phase before and after shaking was measured. The absorbance of WSO before mixing minus the absorbance of WSO after mixing corresponds to the absorbance of the complex in OSW. The distribution coefficients (log Do/w) of the complexes were obtained from the ratio of the complexes present in 1-octanol and the aqueous phase (eq 3). Each experiment was repeated three times. To avoid protonation in complexes 5 and 6, a carbonate–bicarbonate buffer at pH 9.2 in OSW was used. [drawing 24] 3 where A1-oct corresponds to the absorbance of WSO phase and Atotal is the actual concentration of the WSO before shaking.

[5] = blue light 460 nm 1 h (24.1 J cm^–2), read-out: IC50,light
[6] = 1BR.3.G nonmalignant fibroblasts, dark, read-out: IC50,dark
[7] = 1BR.3.G, blue light 460 nm 1 h (24.1 J cm^–2), read-out: IC50,light

Compound	proportion of cells with uptake of trypan blue dye (A549 cells [1])	red fluorescent particles (lysosomes, AO staining) (A549 cells [2])	PI/Dose (A549; listed as 4)	PI/Dose (A549; listed as Complex 4)	IC50 (A549; [5])	PI (IC50,dark/IC50,light) (A549)	IC50 (A549; dark, read-out: IC50,dark)	photoselectivity: IC50,light in A549 lower than IC50,dark in MRC-5 (A549)	phototoxicity indexes (A549)	IC50 (1BR.3.G; [6])	PI (IC50,dark/IC50,light) (1BR.3.G; 1BR.3.G)	IC50 (1BR.3.G; [7])	superoxide anion (O2•–) increase in mean fluorescence (A549 cells [3])	logD9.2 [4]	logP [4]	PI/Dose (A549)
Cc1c(C)c(C)[c-](C)c1C.F[B-](F)(F)F.c1ccc2cc3nc4c5ccc[n+]6c5c5[c](cccc5c4nc3cc2c1)[Ir]6[n+]1cc[nH]c1 [complex 4, [(η^5-C5Me5)Ir(Im)(pbpn)]BF4]	54%	completely disappeared	84	84.4	1 ± 0.4 nM	2034	2100 ± 600 nM	2480 times	approximately 1000	2000 ± 400 nM	2451	0.8 ± 0.4 nM	2.4 fold	–	–	–
Cc1c(C)c(C)[c-](C)c1C.F[B-](F)(F)F.c1ccc2nc3c4ccc[n+]5c4c4[c](cccc4c3nc2c1)[Ir]5[n+]1ccn(CCN2CCCCC2)c1 [complex 5, [(η^5-C5Me5)Ir(Imepip)(pbpz)]BF4]	–	–	–	–	–	–	–	–	–	–	–	–	–	1.10 ± 0.10	–	–
Cc1c(C)c(C)[c-](C)c1C.F[B-](F)(F)F.c1ccc2cc3nc4c5ccc[n+]6c5c5[c](cccc5c4nc3cc2c1)[Ir]6[n+]1ccn(CCN2CCCCC2)c1 [complex 6, [(η^5-C5Me5) Ir(Imepip)(pbpn)]BF4]	53%	completely disappeared	–	–	0.4 ± 0.2 nM	911	330 ± 200 nM	1750 times	approximately 1000	570 ± 60 nM	644	0.9 ± 0.3 nM	2.8 fold	1.39 ± 0.07	–	–
Cc1c(C)c(C)[c-](C)c1C.F[B-](F)(F)F.c1ccc(Cn2cc[n+]([Ir]3[c]4cccc5c6nc7ccccc7nc6c6ccc[n+]3c6c45)c2)cc1 [complex 7, [(η^5-C5Me5)Ir(bzIm)(pbpz)]BF4]	–	–	–	–	–	–	–	–	–	–	–	–	–	–	1.65 ± 0.16	–
Cc1c(C)c(C)[c-](C)c1C.F[B-](F)(F)F.c1ccc(Cn2cc[n+]([Ir]3[c]4cccc5c6nc7cc8ccccc8cc7nc6c6ccc[n+]3c6c45)c2)cc1 [complex 8, [(η^5-C5Me5)Ir(bzIm)(pbpn)]BF4]	23%	completely disappeared	–	–	0.4 ± 0.3 nM	1260	500 ± 200 nM	1700 times	approximately 1000	500 ± 40 nM	942	0.5 ± 0.2 nM	2.6 fold	–	1.13 ± 0.03	52.3
